# Results: patent US11421237B2, “Pair of amino acid sequences for monitoring formation of TDP-43 oligomer in living cells via bimolecular fluorescence complementation” (KOREA INSTITUTE OF SCIENCE AND TECHNOLOGY, priority 2019, dated 2022)
# Several values for one entry are separate records, joined by “and”; a condition that tells them apart may be missing. Identical values can stand only once. Entries after “also recorded” stand apart in the source; their conditions may differ. Peptide text beside a SMILES is read from it. * marks the point of attachment. Cbz = O=C(OCc1ccccc1)*
# How the values were obtained:
# Assay type in all cases: cell-based, human
# TDP-43-BiFC cells [1] = assay: BiFC fluorescence analysis of TDP-43 oligomer formation in TDP-43-BiFC cells (384-well, Operetta); conditions: 48 hours at 37° C.; for increase of BiFC fluorescence in the cells compared to untreated cells: forskolin 30 μM, scriptaid 3 μM, thapsigargin 1 μM, ionomycin 1 μM, Cu^2+ 1 μM, Zn^2+ 30 μM; for change in BiFC fluorescence of TDP-43 (in words): MG132 5 μM, α-synuclein 5 μg/ml, tauK18^P301L 5 μg/ml
# Method: In order to develop a TDP-43-BiFC cell line, the TDP-43-VN173 and TDP-43-VC155 constructs shown in FIG. 2 were co-transfected into HEK293 BiFC cells. For establishment of a stable cell line, the transfected cells were selected by culture with growth medium containing 100 μg/mL geneticin (G418; Sigma). In addition, the selected cells were sorted using FACSAria (BD Bioscience) into cells showing fluorescence. The sorted TDP-43-BiFC cells were kept in DMEM medium containing 10% FBS, 100 units/mL penicillin, 100 μg/mL streptomycin and 100 μg/mL G418 in a humidified atmosphere at 37° C. under 5% CO2.
# The TDP-43-BiFC cells prepared in Example 1 above were treated with a compound that induces PTMs of protein, a compound that ER stress in cells, amyloid protein, metal ions, or the like, and changes in BiFC fluorescence in the cells were examined. Specifically, for fluorescence analysis, the TDP-43-BiFC cells were grown in a 384-well plate and treated with each of forskolin (30 μM), scriptaid (3 μM), thapsigargin (1 μM), ionomycin (1 μM), MG132 (5 μM), α-synuclein (5 μg/ml), tauK18^P301L (5 μg/ml), Cu^2+ (1 μM) and Zn^2+ (30 μM), followed by culture at 37° C. for 48 hours. Fluorescence images were obtained using Operetta® (PerkinElmer), and the fluorescence intensity in the nucleus and the cytoplasmic fluorescence intensity were analyzed using Harmony3.1 software (PerkinElmer).
# TDP-43-BiFC cells [2] = assay: Intracellular distribution of BiFC fluorescence, high-magnification imaging; conditions: treated as in Example 2 (scriptaid 3 μM, 48 hours); 1000× magnification
# Excerpt: Next, the pattern of intracellular distribution by an increase in TDP-43 oligomer formation was examined. Specifically, TDP-43 formation was induced in the same manner as Example 2 above, and then the whole plate was automatically imaged using Operetta®, and high-resolution images were obtained using a Nikon Eclipse inverted microscope (Ti, Nikon) at 1000× magnification.
# TDP-43-BiFC cells [3] = assay: Isolation of TDP-43 oligomer with GFP-trap beads and immunoblot with anti-TDP-43 antibody; conditions: 24 hours at 37° C., forskolin 30 μM, scriptaid 1 μM, thapsigargin 0.5 μM, ionomycin 1 μM, SDS-PAGE, immunoblot
# Method: Lysates of the TDP-43-BiFC cells treated with each of the four drugs in Example 3 and a lysate of untreated cells were prepared and TDP-43 oligomers were isolated therefrom. Specifically, TDP-43-BiFC cells were grown in a 6-well plate, treated with each of forskolin (30 μM), scriptaid (1 μM), thapsigargin (0.5 μM) and ionomycin (1 μM), and cultured at 37° C. for 24 hours, and then lysates of the cells were prepared. GFP-trap beads shown in FIG. 5a were added to the lysates which were then incubated at 4° C. for 16 hours, and the oligomerized TDP-43 protein was isolated. The isolated protein was separated by SDS-PAGE, and immunoblot analysis was performed using anti-TDP-43 antibody.
compound,measurement,setting,value
[Cu+2] [Cu^2+],increase of BiFC fluorescence in the cells compared to untreated cells,TDP-43-BiFC cells [1],about 2 fold
CC(C)C[C@@H](C=O)NC(=O)[C@H](CC(C)C)NC(=O)[C@H](CC(C)C)NC(=O)OCc1ccccc1 [MG132] (Cbz-Leu-Leu-Leu-aldehyde),change in BiFC fluorescence of TDP-43 (in words),TDP-43-BiFC cells [1],no change
[Zn+2] [Zn^2+],increase of BiFC fluorescence in the cells compared to untreated cells,TDP-43-BiFC cells [1],about 2 fold
C[C@H](CCC(=O)O)C[C@H](C)C[C@H](C)C(=O)/C=C(\O)[C@H](C)C[C@H](C)C/C=C/[C@@H](C)[C@@H](O)[C@@H](C)[C@@H](O)C[C@@H]1CC[C@@](C)([C@H]2CC[C@@](C)([C@@H](C)O)O2)O1 [ionomycin],increase of BiFC fluorescence in the cells compared to untreated cells,TDP-43-BiFC cells [1],7 fold
O=C(CCCCCN1C(=O)c2cccc3cccc(c23)C1=O)NO [scriptaid],distribution of BiFC fluorescence in nucleus and cytoplasm,TDP-43-BiFC cells [2],greatly increased the fluorescence not only in the nucleus but also in the cytoplasm; also recorded: significantly increased not only in the nucleus but also in the cytoplasm
same,increase of BiFC fluorescence in the cells compared to untreated cells,TDP-43-BiFC cells [1],36 fold and 48 fold
same,amount of detected oligomerized TDP-43 protein compared to untreated cells,TDP-43-BiFC cells [3],largest amount
C/C=C(/C)C(=O)O[C@H]1C(C)=C2[C@H]([C@@H]1OC(=O)CCCCCCC)[C@@](C)(OC(C)=O)C[C@H](OC(=O)CCC)[C@@]1(O)[C@H]2OC(=O)[C@@]1(C)O [thapsigargin],increase of BiFC fluorescence in the cells compared to untreated cells,TDP-43-BiFC cells [1],31 fold
tauK18^P301L,change in BiFC fluorescence of TDP-43 (in words),TDP-43-BiFC cells [1],did not increase
α-synuclein,change in BiFC fluorescence of TDP-43 (in words),TDP-43-BiFC cells [1],did not increase
